Data taken from patent publication EP2589383A1 (Max-Planck-Gesellschaft zur Förderung der Wissenschaften …, priority 2011, dated 2013).

Target: T1, FLAG-mTOR (Homo sapiens, UniProt P42345)
T1 construct: expressed in transfected cells; host or cells: HEK-293
Test: Co-immunoprecipitation of FLAG-mTOR and endogenous FKBPs in HEK-293 cells
Format: cell-based
Details: overexpressed mTOR, 25 nM, 30 minutes prior to lysis
Procedure: Next mammalian cells were analyzed for a rapamycin-mediated interaction of mTOR and FKBPs. Co-Immunoprecipitation experiments were performed. In detail, the mammalian expression vector pcDNA-3, containing a FLAG-tagged mTOR cDNA sequence, was introduced into HEK-293 cells by standard Lipofectamine transfection. After 48 h, cells were washed twice with TBS and lysed in lysis buffer (40 mM Hepes, pH 7.5; 120 mM NaCl; 1 mM EDTA; 10 mM pyrophosphate; 10 mM glycerophosphate; 0.5 mM orthovanadate; 50 mM NaF; 0.3% (w/v) CHAPS / 1% (v/v) Triton-100; 1% (v/v) protease inhibitor mix) by shaking at 1000 rpm at 4°C for 20 minutes. After 20 minutes of centrifugation at 14.000 rpm and 4°C, the supernatant was collected, and total protein was determined by Bradford Assay. […] Beads were pelleted and washed 4 times with lysis buffer. Finally, beads were directly boiled after addition of an equal amount of SDS sample buffer for 5 minutes. Extracts were subjected to SDS-PAGE and immunoblotting.

- interaction of mTOR with endogenous FKBP12, FKBP51 and FKBP52 (co-precipitation): No interaction was observed
Compound: C=CC[C@@H]1/C=C(\C)C[C@H](C)C[C@H](OC)[C@H]2O[C@@](O)(C(=O)C(=O)N3CCCC[C@H]3C(=O)O[C@H](/C(C)=C/[C@@H]3CC[C@@H](O)[C@H](OC)C3)[C@H](C)[C@@H](O)CC1=O)[C@H](C)C[C@@H]2OC [Tacrolimus]
